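A five-concentration, 48-hour dose response in 96-well plates underlies each endpoint, interpolated linearly between surrounding concentrations. TGI is the concentration that stops growth completely.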
What was measured:
Assay in all cases: inhibition of tumour cell growth, NCI panel, 48 h
[1] = tested on: HCC-2998 colon
[2] = tested on: MOLT-4 leukemia
[3] = tested on: SW-620 colon
[4] = tested on: UACC-257 melanoma
[5] = tested on: UACC-62 melanoma
[6] = tested on: HOP-62 NSCLC
[7] = tested on: MDA-MB-435
[8] = tested on: HT29 colon
[9] = tested on: KM12 colon
[10] = tested on: OVCAR-8 ovarian
[11] = tested on: SR leukemia
[12] = tested on: OVCAR-3 ovarian
[13] = tested on: A498 renal
[14] = tested on: DU-145 prostate
[15] = tested on: HCT-15 colon
[16] = tested on: SK-MEL-5 melanoma
[17] = tested on: CAKI-1 renal
[18] = tested on: HCT-116 colon
[19] = tested on: RPMI-8226 leukemia
[20] = tested on: OVCAR-5 ovarian
[21] = tested on: SN12C renal
[22] = tested on: MCF7 breast
[23] = tested on: NCI/ADR-RES ovarian
[24] = tested on: SF-268 CNS
[25] = tested on: 786-0 renal
[26] = tested on: CCRF-CEM leukemia
[27] = tested on: BT-549 breast
[28] = tested on: K-562 leukemia
[29] = tested on: M14 melanoma
[30] = tested on: SF-295 CNS
[31] = tested on: SK-MEL-2 melanoma
[32] = tested on: U251 CNS
[33] = tested on: LOX IMVI melanoma
[34] = tested on: SNB-19 CNS
[35] = tested on: MALME-3M melanoma
[36] = tested on: COLO 205 colon
[37] = tested on: NCI-H23 lung
[38] = tested on: NCI-H522 lung
[39] = tested on: T-47D breast
[40] = tested on: SF-539 CNS
[41] = tested on: MDA-MB-231 breast
[42] = tested on: UO-31 renal
[43] = tested on: PC-3 prostate
[44] = tested on: NCI-H226 lung
[45] = tested on: TK-10 renal
[46] = tested on: EKVX NSCLC
[47] = tested on: SK-OV-3 ovarian
[48] = tested on: ACHN renal
[49] = tested on: MDA-N
[50] = tested on: A549 NSCLC
[51] = tested on: HOP-92 NSCLC
[52] = tested on: IGROV1 ovarian
[53] = tested on: OVCAR-4 ovarian
[54] = tested on: SK-MEL-28 melanoma
[55] = tested on: NCI-H460 lung
[56] = tested on: RXF 393 renal
[57] = tested on: SNB-75 CNS

`COc1ccc2c(c1)OCC1Cc3cc4c(cc3OC21)OCO4` (stereo not given) was tested, and the TGI [1] was greater than 100 µM, the TGI [2] was greater than 100 µM and the TGI [3] was greater than 100 µM. The TGI [4] was greater than 100 µM, the TGI [5] was greater than 100 µM and the TGI [6] was greater than 100 µM. For the same compound, the TGI [7] was 34.7 µM, the TGI [8] was greater than 100 µM and the TGI [9] was greater than 100 µM. It also gave a TGI [10] greater than 100 µM, a TGI [11] greater than 100 µM and a TGI [12] greater than 100 µM. The TGI [13] was greater than 100 µM, the TGI [14] was greater than 100 µM and the TGI [15] was greater than 100 µM. For the same compound, the TGI [16] was 57.2 µM, the TGI [17] was greater than 100 µM and the TGI [18] was greater than 100 µM. The TGI [19] was greater than 100 µM, the TGI [20] was greater than 100 µM and the TGI [21] was greater than 100 µM. The TGI [22] was greater than 100 µM, the TGI [23] was greater than 100 µM and the TGI [24] was greater than 100 µM. It also gave a TGI [25] greater than 100 µM, a TGI [26] greater than 100 µM and a TGI [27] greater than 100 µM. The TGI [28] was greater than 100 µM, the TGI [29] was greater than 100 µM and the TGI [30] was greater than 100 µM. The TGI [31] was 86.9 µM, the TGI [32] was greater than 100 µM and the TGI [33] was 52.4 µM. The TGI [34] was greater than 100 µM, the TGI [35] was greater than 100 µM and the TGI [36] was greater than 100 µM. It also gave a TGI [37] greater than 100 µM, a TGI [38] greater than 100 µM and a TGI [39] greater than 100 µM. The TGI [40] was greater than 100 µM, the TGI [41] was greater than 100 µM and the TGI [42] was greater than 100 µM. It also gave a TGI [43] greater than 100 µM, a TGI [44] greater than 100 µM and a TGI [45] of 81.1 µM. For the same compound, the TGI [46] was greater than 100 µM, the TGI [47] was greater than 100 µM and the TGI [48] was greater than 100 µM. It also gave a TGI [49] of 13.8 µM, a TGI [50] greater than 100 µM and a TGI [51] greater than 100 µM. It also gave a TGI [52] greater than 100 µM.
For `O=C1Nc2ccc(Cl)cc2C(=O)N2CCC[C@@H]12`, the TGI [1] was greater than 100 µM, the TGI [2] was greater than 100 µM and the TGI [3] was greater than 100 µM. It also gave a TGI [4] greater than 100 µM, a TGI [5] greater than 100 µM and a TGI [6] greater than 100 µM. It also gave a TGI [7] greater than 100 µM, a TGI [8] greater than 100 µM and a TGI [53] greater than 100 µM. It also gave a TGI [9] greater than 100 µM, a TGI [10] greater than 100 µM and a TGI [11] greater than 100 µM. The TGI [12] was greater than 100 µM, the TGI [13] was greater than 100 µM and the TGI [14] was greater than 100 µM. The TGI [15] was greater than 100 µM, the TGI [16] was greater than 100 µM and the TGI [17] was greater than 100 µM. It also gave a TGI [18] greater than 100 µM, a TGI [19] greater than 100 µM and a TGI [20] greater than 100 µM. For the same compound, the TGI [21] was greater than 100 µM, the TGI [22] was greater than 100 µM and the TGI [54] was greater than 100 µM. The TGI [23] was greater than 100 µM, the TGI [24] was greater than 100 µM and the TGI [25] was greater than 100 µM. It also gave a TGI [55] greater than 100 µM, a TGI [27] greater than 100 µM and a TGI [28] greater than 100 µM. For the same compound, the TGI [29] was greater than 100 µM, the TGI [30] was greater than 100 µM and the TGI [31] was greater than 100 µM. The TGI [32] was greater than 100 µM, the TGI [33] was greater than 100 µM and the TGI [34] was greater than 100 µM. It also gave a TGI [56] greater than 100 µM, a TGI [35] greater than 100 µM and a TGI [36] greater than 100 µM. It also gave a TGI [37] greater than 100 µM, a TGI [38] greater than 100 µM and a TGI [39] greater than 100 µM. For the same compound, the TGI [41] was greater than 100 µM, the TGI [42] was greater than 100 µM and the TGI [43] was greater than 100 µM. The TGI [44] was greater than 100 µM, the TGI [45] was greater than 100 µM and the TGI [46] was greater than 100 µM. The TGI [47] was greater than 100 µM, the TGI [48] was greater than 100 µM and the TGI [49] was greater than 100 µM. It also gave a TGI [50] greater than 100 µM, a TGI [57] greater than 100 µM and a TGI [51] greater than 100 µM. For the same compound, the TGI [52] was greater than 100 µM.
`CCOc1ccccc1N1CSc2nnc(-c3ccccc3)n2C1` was tested, and the TGI [1] was greater than 100 µM, the TGI [2] was greater than 100 µM and the TGI [3] was greater than 100 µM. For the same compound, the TGI [4] was greater than 100 µM, the TGI [5] was greater than 100 µM and the TGI [6] was greater than 100 µM. It also gave a TGI [7] greater than 100 µM, a TGI [8] greater than 100 µM and a TGI [53] greater than 100 µM. For the same compound, the TGI [9] was greater than 100 µM, the TGI [10] was greater than 100 µM and the TGI [11] was greater than 100 µM. The TGI [12] was greater than 100 µM, the TGI [13] was greater than 100 µM and the TGI [14] was greater than 100 µM. For the same compound, the TGI [15] was greater than 100 µM, the TGI [16] was greater than 100 µM and the TGI [17] was greater than 100 µM. It also gave a TGI [18] greater than 100 µM, a TGI [19] greater than 100 µM and a TGI [20] greater than 100 µM. For the same compound, the TGI [21] was greater than 100 µM, the TGI [22] was greater than 100 µM and the TGI [54] was greater than 100 µM. The TGI [23] was greater than 100 µM, the TGI [24] was greater than 100 µM and the TGI [25] was greater than 100 µM. It also gave a TGI [26] of 49.9 µM, a TGI [55] greater than 100 µM and a TGI [27] greater than 100 µM. For the same compound, the TGI [28] was greater than 100 µM, the TGI [29] was greater than 100 µM and the TGI [30] was greater than 100 µM. It also gave a TGI [31] greater than 100 µM, a TGI [32] greater than 100 µM and a TGI [56] greater than 100 µM. The TGI [35] was greater than 100 µM, the TGI [36] was greater than 100 µM and the TGI [37] was greater than 100 µM. It also gave a TGI [38] greater than 100 µM, a TGI [39] greater than 100 µM and a TGI [40] greater than 100 µM. It also gave a TGI [41] greater than 100 µM, a TGI [42] greater than 100 µM and a TGI [43] greater than 100 µM. For the same compound, the TGI [44] was greater than 100 µM, the TGI [45] was greater than 100 µM and the TGI [47] was greater than 100 µM. For the same compound, the TGI [48] was greater than 100 µM, the TGI [49] was greater than 100 µM and the TGI [50] was greater than 100 µM. The TGI [51] was greater than 100 µM and the TGI [52] was greater than 100 µM.
